Results published in publication PMC11111404, “Discovery of potent small-molecule inhibitors of lipoprotein(a) formation” (Nature, 2024).
Values joined by “and” are separate entries in the source; they are usually repeats but may differ in a detail not shown here. Equal values may be shown once.

What was measured:
Lp(a) = Lp(a) levels in cynomolgus monkeys; type: in vivo, cynomolgus monkey (Macaca fascicularis); design: key to Mean_pCFB / Mean_pCFB (Lp(a)): % change in Lp(a) from before dosing; Lp(a): unit not given here; details: for Mean_pCFB (Lp(a)) / Lp(a) / pCFB (Lp(a) pct_chng_from_baseline): cynomolgus monkey; for Mean_pCFB (Lp(a)): group mean; for Lp(a) / pCFB (Lp(a) pct_chng_from_baseline): individual animals
Method: Female or male Chinese Macaca fascicularis cynomolgus monkeys (as described in the figure legends) of unspecified ages with body weight ranging from 2.0 kg to 5.0 kg were housed in cages with a standard light cycle (12-h light, 12-h dark) at room temperature (20–26 °C); the relative humidity ranged from 30% to 70%. Monkeys were given fruits, vegetables or dietary enrichment as a form of environmental enrichment, and various cage enrichment devices. Purina Lab diet 5048C was provided BID and individual monkeys were identified by cage card. The monkeys were randomized to treatment groups by body weight and baseline plasma Lp(a) concentration, as determined by a commercially available Randox assay (Randox LP2757), using a BRAT for the study. In an example cynomolgus monkey study in which 39 monkeys were prescreened for baseline Lp(a) levels, the average Lp(a) level was 350 ± 57 µg ml^−1 (range 53–1,667 µg ml^−1). Monkeys were dosed orally with vehicle (purified water) or compounds QD or BID for 14 days, at dose levels and frequencies as previously described for each compound. Plasma samples were collected on days before dosing to establish baseline Lp(a) and after the morning dose during the study. Lp(a) levels were measured by an investigator who was blinded to group allocation using the Randox assay, and were quantified relative to the calibrator series (Randox LP3404). Data were analysed in GraphPad Prism v.9.5.1. The Lp(a) percentage change from before dosing in non-human primates was analysed by repeated measures ANOVA in SAS v.9.4 (SAS). At each time point, the Lp(a) percentage change for each treated group was compared with vehicle by the Bonferroni method.

[1] = Pharmacokinetics in monkey plasma after oral dosing; type: in vivo; details: Chinese cynomolgus

SMILES: O=C(O)[C@@H](Cc1cccc(CN(Cc2cccc(C[C@H](C(=O)O)[C@H]3CCNC3)c2)Cc2cccc(C[C@H](C(=O)O)[C@H]3CCNC3)c2)c1)[C@H]1CCNC1 [LY3473329]
- Mean_pCFB (Lp(a)) (Lp(a); 100mpk, D03): -44.17
- Mean_pCFB (Lp(a)) (Lp(a); 100mpk, D05): -40.01
- Mean_pCFB (Lp(a)) (Lp(a); 100mpk, D09): -58.32
- Mean_pCFB (Lp(a)) (Lp(a); 100mpk, D14): -73.62
- Lp(a) (Lp(a); 1mpk group, Day 1, Pre dose (baseline), 1 mg/kg): 115.019 and 15.737 and 53.63 and 67.735 and 63.938
- Lp(a) (Lp(a); 1mpk, Day 1, 4hr, 1 mg/kg): 97.491 and 117.597 and 16.395 and 53.808 and 66.137 and 65.184
- pCFB (Lp(a) pct_chng_from_baseline) (Lp(a); 1mpk, Day 1, 1 mg/kg): -11.4161 and 2.241 and 4.181 and 0.3319 and -2.359 and 1.949
- Lp(a) (Lp(a); 1mpk, Day 3, 4hr, 1 mg/kg): 91.721 and 112.368 and 11.704 and 47.474 and 63.489 and 56.499
- pCFB (Lp(a) pct_chng_from_baseline) (Lp(a); 1mpk, Day 3, 1 mg/kg): -16.6589 and -2.305 and -25.6275 and -11.4787 and -6.269 and -11.6347
- Lp(a) (Lp(a); 1mpk, Day 5, 4hr, 1 mg/kg): 85.692 and 109.155 and 11.192 and 45.131 and 70.165 and 53.752
- pCFB (Lp(a) pct_chng_from_baseline) (Lp(a); 1mpk, Day 5, 1 mg/kg): -22.1371 and -5.098 and -28.881 and -15.8475 and 3.588 and -15.9311
- Lp(a) (Lp(a); 1mpk, Day 9, 4hr, 1 mg/kg): 81.717 and 123.954 and 9.293 and 31.114 and 64.385
- pCFB (Lp(a) pct_chng_from_baseline) (Lp(a); 1mpk, Day 9, 1 mg/kg): -25.7489 and 7.768 and -40.9481 and -41.984 and -4.946 and -25.2635
- pCFB (Lp(a) pct_chng_from_baseline) (Lp(a); 1mpk, Day 14, 1 mg/kg): -43.1939 and -2.975 and -53.0914 and -46.914 and -15.7924 and -42.2472
- Lp(a) (Lp(a); 10mpk group, Day 1, Pre dose (baseline), 10 mg/kg): 63.144 and 63.676 and 112.151 and 49.481 and 65.725 and 30.09
- pCFB (Lp(a) pct_chng_from_baseline) (Lp(a); 10mpk, Day 1, 10 mg/kg): -0.54 and 5.215 and -3.008 and -7.112 and -1.928 and 0.1728
- pCFB (Lp(a) pct_chng_from_baseline) (Lp(a); 10mpk, Day 3, 10 mg/kg): -40.1463 and -31.9398 and -31.5575 and -28.9606 and -53.8653 and -27.9495
- Lp(a) (Lp(a); 10mpk, Day 5, 4hr, 10 mg/kg): 69.663 and 26.971 and 31.738 and 21.72
- pCFB (Lp(a) pct_chng_from_baseline) (Lp(a); 10mpk, Day 5, 10 mg/kg): -39.4923 and -41.2165 and -37.8846 and -45.4922 and -51.7109 and -27.8166
- Lp(a) (Lp(a); 10mpk, Day 9, 4hr, 10 mg/kg): 37.879 and 46.471 and 59.699 and 19.275 and 28.08 and 18.466
- pCFB (Lp(a) pct_chng_from_baseline) (Lp(a); 10mpk, Day 9, 10 mg/kg): -40.0117 and -27.0196 and -46.7691 and -61.0457 and -57.2765 and -38.6308
- Lp(a) (Lp(a); 10mpk, Day 14, 4hr, 10 mg/kg): 27.525 and 31.412 and 53.912 and 14.404 and 16.367 and 13.601
- pCFB (Lp(a) pct_chng_from_baseline) (Lp(a); 10mpk, Day 14, 10 mg/kg): -56.4092 and -50.669 and -51.9291 and -70.8898 and -75.0978 and -54.7989
- Lp(a) (Lp(a); 100mpk group, Day 1, Pre dose (baseline), 100 mg/kg): 63.503 and 134.003 and 31.483 and 50.567 and 61.834
- Lp(a) (Lp(a); 100mpk, Day 1, 4hr, 100 mg/kg): 57.552 and 102.207 and 18.95 and 36.698 and 61.471
- pCFB (Lp(a) pct_chng_from_baseline) (Lp(a); 100mpk, Day 1, 100 mg/kg): -39.8088 and -27.427 and -0.5871 and -9.371 and -23.7278
- Lp(a) (Lp(a); 100mpk, Day 3, 4hr, 100 mg/kg): 37.977 and 67.885 and 16.507 and 23.074 and 46.465
- pCFB (Lp(a) pct_chng_from_baseline) (Lp(a); 100mpk, Day 3, 100 mg/kg): -47.5685 and -54.3695 and -24.8553 and -40.1965 and -49.3407
- Lp(a) (Lp(a); 100mpk, Day 5, 4hr, 100 mg/kg): 41.338 and 90.201 and 17.421 and 23.304 and 43.695
- pCFB (Lp(a) pct_chng_from_baseline) (Lp(a); 100mpk, Day 5, 100 mg/kg): -32.6873 and -44.6654 and -53.9146 and -29.335 and -34.9039
- Lp(a) (Lp(a); 100mpk, Day 9, 4hr, 100 mg/kg): 23.771 and 69.54 and 11.012 and 15.587 and 35.753
- pCFB (Lp(a) pct_chng_from_baseline) (Lp(a); 100mpk, Day 9, 100 mg/kg): -48.1056 and -65.0224 and -69.1755 and -42.1791 and -62.5671
- Lp(a) (Lp(a); 100mpk, Day 14, 4hr, 100 mg/kg): 22.568 and 43.526 and 4.973 and 14.913 and 14.296
- pCFB (Lp(a) pct_chng_from_baseline) (Lp(a); 100mpk, Day 14, 100 mg/kg): -67.5186 and -84.2042 and -70.5084 and -76.88 and -64.4615
- reduction of median Lp(a) levels compared with baseline (Lp(a); cynomolgus monkeys, 100 mg kg^−1 QD): up to 71%
- Cmax ([1]; oral 1 mg/kg, day 15): 911 ± 225 nM
- AUC(0-t) ([1]; oral 1 mg/kg, day 15, read-out: AUC(0-96 hr)): 35.8 µM·h
- Tmax ([1]; oral 10 mg/kg, day 15): 30 min
- Cmax ([1]; oral 100 mg/kg, day 15): 4850 nM
